Results reported in PMC6300691, “Enhancement of Heat Stability and Kinetic Parameters of the Maize Endosperm ADP-Glucose Pyrophosphorylase by Mutagenesis of Amino Acids in the Small Subunit With High B Factors” (Frontiers in Plant Science, 2018).
Changes are numbered by the printed parent chain.

Legend:
Assay in all cases: Activation constant from initial rates with varied 3-PGA (0-1 mM) at 2 mM ATP and 2 mM G-1-P, pH 7.4, 15 mM MgCl2, fitted to V = Vmin + Vmax*X/(Ka + X).
Assay type in all cases: biochemical
R331P = molecular target: T1, R331P (Zea mays, UniProt P55241+Q947C0, R331P)
T1 construct: BT2 variant with wild type SH2, E. coli, purified
Excerpt: (§1) All reactions were developed as above.

E123G = molecular target: T2, E123G (Zea mays, UniProt P55241+Q947C0, E123G)
T2 construct: BT2 variant with wild type SH2, E. coli, purified
Excerpt: as §1

E123Q = molecular target: T3, E123Q (Zea mays, UniProt P55241+Q947C0, E123Q)
T3 construct: BT2 variant with wild type SH2, E. coli, purified
Excerpt: as §1

E123G, R331K = molecular target: T4, E123G, R331K (Zea mays, UniProt P55241+Q947C0, E123G/R331K)
T4 construct: BT2 variant with wild type SH2, E. coli, purified
Excerpt: as §1

[1] = molecular target: T5, E123G, R331K, K402R, L404H (Zea mays, UniProt P55241+Q947C0, E123G/R331K/K402R/L404H)
T5 construct: BT2 quadruple variant with wild type SH2, E. coli, purified
Excerpt: as §1

SH2-E = molecular target: T6, SH2-E (Zea mays, UniProt P55241+Q947C0, N131R/T142F/A160T/Q261S/A396S/V416I/C424V/S444A)
T6 construct: SH2-E with wild type BT2 (SH2-E/BT2-WT), E. coli, purified
T6 sequence (Q947C0 1-475): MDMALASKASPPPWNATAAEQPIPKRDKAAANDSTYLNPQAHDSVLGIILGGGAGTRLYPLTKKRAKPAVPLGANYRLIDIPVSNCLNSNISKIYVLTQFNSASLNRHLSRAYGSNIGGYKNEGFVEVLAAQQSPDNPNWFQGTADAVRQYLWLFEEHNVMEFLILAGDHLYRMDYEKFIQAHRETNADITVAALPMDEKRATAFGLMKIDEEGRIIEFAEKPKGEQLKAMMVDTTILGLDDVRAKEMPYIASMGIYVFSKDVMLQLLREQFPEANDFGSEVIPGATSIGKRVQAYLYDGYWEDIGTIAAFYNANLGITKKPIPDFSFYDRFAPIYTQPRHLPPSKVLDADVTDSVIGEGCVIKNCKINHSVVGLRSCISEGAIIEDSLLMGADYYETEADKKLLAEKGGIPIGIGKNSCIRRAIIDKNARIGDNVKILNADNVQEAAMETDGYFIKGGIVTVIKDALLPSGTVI
T6 sequence (P55241 46-516 N131R/T142F/A160T/Q261S/A396S/V416I/C424V/S444A): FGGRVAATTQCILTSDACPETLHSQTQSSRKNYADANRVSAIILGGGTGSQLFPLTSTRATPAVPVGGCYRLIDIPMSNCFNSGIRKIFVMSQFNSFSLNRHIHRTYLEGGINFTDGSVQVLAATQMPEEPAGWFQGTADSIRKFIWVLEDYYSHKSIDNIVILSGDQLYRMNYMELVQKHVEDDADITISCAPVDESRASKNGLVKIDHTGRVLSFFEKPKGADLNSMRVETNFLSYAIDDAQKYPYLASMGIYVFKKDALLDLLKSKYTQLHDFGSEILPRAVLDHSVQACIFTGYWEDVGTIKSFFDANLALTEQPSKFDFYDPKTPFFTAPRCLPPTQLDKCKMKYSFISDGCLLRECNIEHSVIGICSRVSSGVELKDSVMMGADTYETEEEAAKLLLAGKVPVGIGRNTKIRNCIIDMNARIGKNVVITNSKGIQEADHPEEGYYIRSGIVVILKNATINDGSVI
Excerpt: as §1

L404K = molecular target: T7, L404K (Zea mays, UniProt P55241+Q947C0, L404K)
T7 construct: BT2 variant with wild type SH2, E. coli, purified
Excerpt: as §1

L404H = molecular target: T8, L404H (Zea mays, UniProt P55241+Q947C0, L404H)
T8 construct: BT2 variant with wild type SH2, E. coli, purified
Excerpt: as §1

SH2-E/BT2-BF = molecular target: T9, SH2-E/BT2-BF (Zea mays, UniProt P55241+Q947C0, E123G/N131R/T142F/A160T/Q261S/R331K/A396S/K402R/V416I/C424V/S444A)
T9 construct: SH2-E co-expressed with BT2-BF, E. coli, purified
T9 sequence (Q947C0 1-475 E123G/R331K/K402R): T6 sequence (Q947C0 1-475) with E123G, R331K, K402R
T9 sequence (P55241 46-516 N131R/T142F/A160T/Q261S/A396S/V416I/C424V/S444A): T6 sequence (P55241 46-516 N131R/T142F/A160T/Q261S/A396S/V416I/C424V/S444A)
Excerpt: as §1

[2] = molecular target: T10, E123G, R331K, K402R (BT2-BF) (Zea mays, UniProt P55241+Q947C0, E123G/R331K/K402R)
T10 construct: BT2-BF with wild type SH2 (SH2-WT/BT2-BF), E. coli, purified
T10 sequence (Q947C0 1-475 E123G/R331K/K402R): T6 sequence (Q947C0 1-475) with E123G, R331K, K402R
T10 sequence (P55241 46-516): T6 sequence (P55241 46-516 N131R/T142F/A160T/Q261S/A396S/V416I/C424V/S444A) with R86N, F97T, T115A, S216Q, S351A, I371V, V379C, A399S
Excerpt: as §1

L404E = molecular target: T11, L404E (Zea mays, UniProt P55241+Q947C0, L404E)
T11 construct: BT2 variant with wild type SH2, E. coli, purified
Excerpt: as §1

E123G, R331K, L404H = molecular target: T12, E123G, R331K, L404H (Zea mays, UniProt P55241+Q947C0, E123G/R331K/L404H)
T12 construct: BT2 variant with wild type SH2, E. coli, purified
Excerpt: as §1

T7 sequence (Q947C0 1-475 L404K): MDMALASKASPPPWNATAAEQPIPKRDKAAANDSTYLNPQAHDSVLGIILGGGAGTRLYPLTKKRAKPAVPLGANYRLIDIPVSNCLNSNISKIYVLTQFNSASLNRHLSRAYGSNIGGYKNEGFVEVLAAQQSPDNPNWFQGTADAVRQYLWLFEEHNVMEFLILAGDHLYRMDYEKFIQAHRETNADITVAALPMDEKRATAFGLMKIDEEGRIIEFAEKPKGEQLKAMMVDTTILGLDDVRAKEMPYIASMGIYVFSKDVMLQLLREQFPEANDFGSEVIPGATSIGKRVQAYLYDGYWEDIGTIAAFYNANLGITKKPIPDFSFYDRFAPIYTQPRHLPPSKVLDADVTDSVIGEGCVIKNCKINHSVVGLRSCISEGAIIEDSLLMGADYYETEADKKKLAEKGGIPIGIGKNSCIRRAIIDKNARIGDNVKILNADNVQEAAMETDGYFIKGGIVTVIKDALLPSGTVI
T7 sequence (P55241 46-516, stated change not applied): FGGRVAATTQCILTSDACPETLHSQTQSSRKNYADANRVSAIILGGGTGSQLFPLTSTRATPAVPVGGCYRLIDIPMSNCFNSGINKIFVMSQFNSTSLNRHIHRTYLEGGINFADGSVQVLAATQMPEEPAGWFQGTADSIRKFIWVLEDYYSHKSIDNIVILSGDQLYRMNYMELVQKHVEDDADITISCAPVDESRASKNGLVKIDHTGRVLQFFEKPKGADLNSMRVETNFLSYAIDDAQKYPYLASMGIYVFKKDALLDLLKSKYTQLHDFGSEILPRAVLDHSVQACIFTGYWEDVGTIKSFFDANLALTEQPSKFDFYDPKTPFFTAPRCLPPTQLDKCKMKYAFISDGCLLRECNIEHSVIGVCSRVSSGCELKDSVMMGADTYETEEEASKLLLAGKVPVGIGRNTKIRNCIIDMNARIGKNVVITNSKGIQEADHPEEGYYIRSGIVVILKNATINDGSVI
T1 sequence (Q947C0 1-475 R331P): as the sequence (Q947C0 1-475 L404K) above, with R331P, K404L counted along it
T1 sequence (P55241 46-516): as the sequence (P55241 46-516, stated change not applied) above
T5 sequence (Q947C0 1-475 E123G/R331K/K402R/L404H): as the sequence (Q947C0 1-475 L404K) above, with E123G, R331K, K402R, K404H counted along it
T5 sequence (P55241 46-516, stated change not applied): as the sequence (P55241 46-516, stated change not applied) above
T4 sequence (Q947C0 1-475 E123G/R331K): as the sequence (Q947C0 1-475 L404K) above, with E123G, R331K, K404L counted along it
T4 sequence (P55241 46-516): as the sequence (P55241 46-516, stated change not applied) above
T12 sequence (Q947C0 1-475 E123G/R331K/L404H): as the sequence (Q947C0 1-475 L404K) above, with E123G, R331K, K404H counted along it
T12 sequence (P55241 46-516, stated change not applied): as the sequence (P55241 46-516, stated change not applied) above
T2 sequence (P55241 46-516): as the sequence (P55241 46-516, stated change not applied) above
T2 sequence (Q947C0 entry or part of it E123G): as the sequence (Q947C0 1-475 L404K) above, with E123G, K404L counted along it
T3 sequence (Q947C0 1-475 E123Q): as the sequence (Q947C0 1-475 L404K) above, with E123Q, K404L counted along it
T3 sequence (P55241 46-516): as the sequence (P55241 46-516, stated change not applied) above
T11 sequence (Q947C0 1-475 L404E): as the sequence (Q947C0 1-475 L404K) above, with K404E counted along it
T11 sequence (P55241 46-516, stated change not applied): as the sequence (P55241 46-516, stated change not applied) above
T8 sequence (Q947C0 1-475 L404H): as the sequence (Q947C0 1-475 L404K) above, with K404H counted along it
T8 sequence (P55241 46-516, stated change not applied): as the sequence (P55241 46-516, stated change not applied) above

For `O=C(O)[C@H](O)COP(=O)(O)O` [3-PGA, 3-phosphoglycerate (3-phosphoglyceric acid)], the “3-PGA Ka (activation constant)” value (R331P) was 0.094 ± 0.013, the “3-PGA Ka (activation constant)” value (E123G) was 0.090 ± 0.023 and the “3-PGA Ka (activation constant)” value (E123Q) was 0.12 ± 0.022. The “3-PGA Ka (activation constant)” value (E123G, R331K) was 0.183 ± 0.024, the “3-PGA Ka (activation constant)” value [1] was 0.11 ± 0.017 + and the “3-PGA Ka (activation constant)” value (SH2-E) was 0.070 ± 0.01. For the same compound, the “3-PGA Ka (activation constant)” value (L404K) was 0.14 ± 0.047, the “3-PGA Ka (activation constant)” value (L404H) was 0.05 ± 0.008 and the “3-PGA Ka (activation constant)” value (SH2-E/BT2-BF) was 0.36 ± 0.09. For the same compound, the “3-PGA Ka (activation constant)” value [2] was 0.060 ± 0.0097, the “3-PGA Ka (activation constant)” value (L404E) was 0.15 ± 0.014 and the “3-PGA Ka (activation constant)” value (E123G, R331K, L404H) was 0.059 ± 0.11.
